Measurements reported in PMC11505670, “Four newly synthesized enones induce mitochondrial-mediated apoptosis and G2/M cell cycle arrest in colorectal and cervical cancer cells” (RSC Advances, 2024).

How the values were obtained:
Type in all cases: cell-based, human
HeLa cells [1] = test: MTT cytotoxicity assay, HeLa; settings: for Selectivity index (SI): IC50 healthy cells (MRC-5)/IC50 tumor cells; for Cytotoxicity range: concentration range 1–100 μM; for IC50: Homo sapiens, MTT
Procedure: (§1) To examine and compare the antiproliferative activities of four enones, the cytotoxicity of the compounds was assessed by the 3-(4,5-dimethylthiazol-2-yl)-2,5-diphenyltetrazolium bromide (MTT) assay[9] in, colon cancer cells (HCT-116), cervical cancer cell line (HeLa) and human fibroblast lung cell line (MRC-5) that was used as a healthy control cell line. After trypsinization, seeded (5 × 10^3 cells per well in 96-well plates) cells were treated with different concentrations of the investigated enones (1, 3, 10, 30, and 100 μM) during 48 and 72 h period incubation period +37 °C and 5–6.5% CO2. After the incubation period, the medium was removed and MTT solution (5 mg ml^−1) was added to the wells.
(§2) After a 3 hour incubation with the MTT solution, the resulting formazan crystals were dissolved in DMSO (67-68-5, Merck). Absorbance was subsequently measured at 595 nm using a microplate reader (Zenith 3100, Anthos Labtech Instruments). The percentage of cytotoxic cells was determined using the formula: cytotoxicity (%) = (1 − (exp. group (ABS))/(control group (ABS)) × 100). IC50 values were calculated using GraphPad Prism 10 software. The selectivity index (SI) was determined using the formula: SI?IC50 value for healthy cells/IC50 value for tumor cells.[9]

[2] = test system: cytochrome c in HCT-116 cells; test: Cytochrome c localization by immunofluorescence, HCT-116; settings: IC50 concentration, 48 h
Procedure: After 48 hours of treatment, immunofluorescence analysis of cytochrome c distribution and expression in treated cells was performed using glass coverslips.[10] Following the treatment, cells were washed with PBS, fixed in 4% formaldehyde for 20 min, and permeabilized with 0.2% Tween-20. Blocking was performed using a buffer containing 0.1% Tween-20 and 10% FBS for 30 min. The cells were then incubated for 1 hour at room temperature with a monoclonal mouse anti-human cytochrome c antibody (1:100, G7421, Promega, USA,)
Subsequently, the cells were incubated for 30 minutes with a goat anti-mouse FITC (1:200, diluted in blocking buffer), washed, and images were acquired using an inverted fluorescence microscope (Olympus IX50). Image analysis was performed using ImageJ software.

[3] = test system: active caspase-3 in HCT-116 cells; test: Flow cytometric analysis of active caspase-3, HCT-116; settings: IC50 concentration, 48 h, vs control
Procedure: (§3) Cells were washed with PBS, fixed, permeabilized using Fixation and Permeabilization Kit (eBioscience), and stained separately for Bcl-2, Bax, and cleaved-caspase-3.[8,9] Permeabilized cells were incubated with primary antibodies: mouse anti-human-Bcl-2 (DC21, sc-783, Santa Cruz Biotech. Inc.), mouse anti-human Bax (N20, sc-493, Santa Cruz Biotech. Inc.), and anti-cleaved caspase-3 (Cell signaling Technology 9661). Following antibody incubation, cells were washed and incubated with secondary Alexa 488-conjugated antibodies (ab185015, Abcam, United Kingdom) for 30 minutes. After an additional wash with PBS, flow cytometry analysis was performed.
(§4) Data were analyzed using FlowJo Software. The expression of Bcl-2 and Bax proteins was quantified as mean fluorescence intensity (MFI). The results were presented with bar graphs. Bax/Bcl-2 index was calculated using the formula […]. The percentage of cells expressing active caspase-3 (MFI) was presented in histograms.

HCT-116 cells [4] = test: MTT cytotoxicity assay, HCT-116; settings: for Cytotoxicity range: concentration range 1–100 μM; for Selectivity index (SI): IC50 healthy cells (MRC-5)/IC50 tumor cells; for IC50: Homo sapiens, MTT
Procedure: as §1, §2

[5] = test system: active caspase-3 in HeLa cells; test: Flow cytometric analysis of active caspase-3, HeLa; settings: IC50 concentration, 48 h, vs control
Procedure: as §3, §4

HCT-116 cells [6] = test: Annexin V-FITC/7-AAD apoptosis flow cytometry, HCT-116; settings: IC50 concentration, 48 h
Procedure: (§5) The type of cell death was assessed using flow cytometry using FITC Annexin V Apoptosis Detection Kit with 7-AAD (640922, Bio legend).[8] […] After treatment, cells were harvested, washed with PBS (resuspended in 100 μl of ice-cold 1X binding buffer), stained (20 μl of 7-AAD and 10 μl of Annexin V-FITC), and incubated in the dark for 15 min at +4 °C. After incubation, 400 μl of binding buffer was added and the samples were analyzed using flow cytometer Cytomics FC500 (Beckman Coulter, USA). Data analysis was performed using FlowJo Software and presented with histogram and dot plots.

HCT-116 cells [7] = test: Cell cycle analysis (PI, flow cytometry), HCT-116; settings: IC50 concentration, 48 h; control 27.4%
Procedure: (§6) After treatment of HCT-116 and HeLa cells with enones, cells were harvested, washed with PBS, and fixed in 70% ice-cold ethanol at +4 °C overnight.[10] The cells were then pelleted, resuspended in 1 ml PBS containing RNAse A (12091021, Sigma Aldrich), and incubated for 30 min at 37 °C. A staining solution containing propidium iodide (1 mg PI per ml PBS) (B7758, Biotrend) was added to cells, followed by 15 min incubation in the dark. Cells were analyzed by flow cytometer Cytomics FC500. DNA content was determined using Flowing Software and cell cycle distribution was presented by graph (histograms).

[8] = test system: Bax and Bcl-2 in HeLa cells; test: Flow cytometric analysis of Bax and Bcl-2 expression, HeLa; settings: IC50 concentration, 48 h, from MFI
Procedure: as §3, §4

MRC-5 cells = test: MTT cytotoxicity assay, MRC-5 healthy control cells; settings: Homo sapiens
Procedure: as §1, §2

HeLa cells [9] = test: Cell cycle analysis (PI, flow cytometry), HeLa; settings: IC50 concentration, 48 h; control 29.9%
Procedure: as §6

[10] = test system: mitochondrial membrane potential (ΔΨm) in HeLa cells; test: Mitochondrial membrane potential (ΔΨm) JC-10 analysis, HeLa; settings: IC50 concentration, 48 h
Procedure: (§7) Changes in the ΔΨm caused by 48 hours of enones treatment, were assessed using JC-10 dye.[10]. (Enzo Life Sciences, Farmingdale, NY, USA).
(§8) In healthy cells, JC-10 dye accumulates in the mitochondria as red fluorescent aggregates. However, upon cell damage, changes in ΔΨm occur and result in dislocation of JC-10 from the mitochondria to the cytosol and the monomerization of aggregates, shifting fluorescence from red to green. Cells were cultured in 24-well plate (3 × 10^4 cells per well) overnight in the incubator (5% CO2, 37 °C). […] Following treatment, cells were washed with warm 1xPBS and incubated with JC-10 dye (2.5 μM in warm PBS) at 5% CO2, 37 °C for 20 minutes. Cells were then washed with 1xPBS and observed using an Olympus IX50 inverted fluorescence microscope. Images were captured and analyzed using ImageJ software. The ratio of fluorescence emissions at 525 and 590 nm was used for quantification analysis.

HeLa cells [11] = test: Annexin V-FITC/7-AAD apoptosis flow cytometry, HeLa; settings: IC50 concentration, 48 h
Procedure: as §5

[12] = test system: mitochondrial membrane potential (ΔΨm) in HCT-116 cells; test: Mitochondrial membrane potential (ΔΨm) JC-10 analysis, HCT-116; settings: IC50 concentration, 48 h
Procedure: as §7, §8

[13] = test system: Bax and Bcl-2 in HCT-116 cells; test: Flow cytometric analysis of Bax and Bcl-2 expression, HCT-116; settings: HCT-116, IC50 concentration, 48 h, from MFI
Procedure: as §3, §4

For COc1cc(/C=C/C(=O)C2CC2)ccc1OCC(=O)O [E4, (E)-2-(4-(3-Cyclopropyl-3-oxoprop-1-en-1-yl)-2-methoxyphenoxy)acetic acid], the “Selectivity index (SI)” value (HeLa cells [1]; 48 h) was 4.97, the Cytotoxicity range (HeLa cells [1]; 48 h) was 12.12–60.72% and the “Selectivity index (SI)” value (HeLa cells [1]; 72 h) was 19.41. For the same compound, the Cytotoxicity range (HeLa cells [1]; 72 h) was 42.39–59.81%, the IC50 (HeLa cells [1]; 48 h) was 20.1 ± 1.19 µM and the IC50 (HeLa cells [1]; 72 h) was 4.12 ± 0.08 µM. The “RELATIVE RATIO OF CYTOSOL CYTC TO MITOCHONDRIAL CYT C IN HCT-116 CELLS” value [2] was 0.9, the “MFI of active caspase-3 in HCT-116 (fold change)” value [3] was 1.9 fold change and the Cytotoxicity range (HCT-116 cells [4]; HCT-116, 48 h) was 39.29–68.45%. For the same compound, the “Selectivity index (SI)” value (HCT-116 cells [4]; HCT-116, 48 h) was 10.62, the Cytotoxicity range (HCT-116 cells [4]; HCT-116, 72 h) was 65.85–71.44% and the “Selectivity index (SI)” value (HCT-116 cells [4]; HCT-116, 72 h) was 40.00. The IC50 (HCT-116 cells [4]; HCT-116, 48 h) was 9.42 ± 1.78 µM, the IC50 (HCT-116 cells [4]; HCT-116, 72 h) was 2 ± 0.01 µM and the “MFI of active caspase-3 in HeLa (fold change)” value [5] was 1.6 fold change. For the same compound, the “increase of percentage of apoptotic HCT-116 cells compared to control HCT-116 cells” value (HCT-116 cells [6]) was 6.7 fold, the “percentage of total apoptotic HCT-116 cells (sum of early and late)” value (HCT-116 cells [6]) was 47.23% and the “% OF HCT-116 CELLS, G2/M” value (HCT-116 cells [7]) was 41.4%. The Bax/Bcl-2 ratio [8] was 1, the IC50 (MRC-5 cells; MRC5, MRC-5, 48 h) was > 100 µM and the IC50 (MRC-5 cells; MRC5, MRC-5, 72 h) was > 80 µM. For the same compound, the “% OF HELA CELLS, G2/M” value (HeLa cells [9]) was 61.9%, the “JC10-green/JC10 red ratio in HeLa cells” value [10] was 1.2 and the “total percentage of apoptotic HeLa cells” value (HeLa cells [11]) was 33.18%. The “JC10-green/JC10 red ratio in HCT-116 cells” value [12] was 1.4 and the Bax/Bcl-2 ratio [13] was 1.4.
